Measured values taken from paper PMC8807614 (Scientific Reports, 2022).
Entries after “also recorded” stand apart in the source; their conditions may differ. Peptide text beside a SMILES is read from it.

What was measured:
[1] = Plasma peptide concentrations 4 h after last dosing in DIO mice; assay type: in vivo, male C57BL/6 J mice; conditions: treatment day 6, 1,250 nmol/kg SC BID
Experimental: (a) Body weight. (b) 24 h food intake. (c) total food intake during treatment phase. (d) total food intake during wash-out phase. (e) Plasma peptide concentrations as measured 4 h after last dosing (treatment day 6). Peptides were administered (SC, BID) at a dose of 1250 nmol/kg (n = 7–8 per group). **p < 0.01, ***p < 0.001 compared to vehicle.
Figure 4 Lipidated metabolites of GUB03385 robustly reduce body weight and food intake in DIO mice. Effect of subchronic treatment (days 0–6) with GUB08248, GUB08251, GUB10194 and GUB10195 followed by 7-day wash-out period (days 7–13, marked in grey). In vivo efficacy was compared to semaglutide (10 nmol/kg, SC, QD, n = 8). (a) Body weight. (b) 24 h food intake. (c) Total food intake during treatment phase. (d) Total food intake during wash-out phase. (e) Plasma peptide concentrations as measured 4 h after last dosing (treatment day 6).
Compounds were freshly prepared in vehicle (PBS with 0.1% BSA, pH 4) just prior to dosing. Semaglutide was purchased from Hoersholm Pharmacy (Hoersholm, Denmark). All animals were single housed two weeks prior to treatment and throughout the remaining of the study period. […] Body weight and food intake (24 h) were measured daily during the treatment period and one week after treatment. […]

human NPFF2R = human NPFF2R (Homo sapiens, UniProt Q9Y5X5); test: NPFF2R functional activity assay (cAMP, HTRF); assay type: cell-based; conditions: CHO-K1 cells stably expressing human NPFF2R, 1500 cells/well; HTRF cAMP (CisBio); 3 µM forskolin (~90% activity level); 30 min; DPBS, 0.5 mM IBMX, 0.05% casein; 11 concentrations
Experimental: Figure 3 GPR10 and NPFF2R profiling of in vivo metabolites of GUB03385. […] (b) cAMP measurements in human NPFF2R CHO-K cells (HTRF technology, CisBio) at a fixed concentration of 3 µM forskolin after 30 min. incubation at room temperature with metabolites and the native peptide NPSF. Representative curves of three determinations.
The Homogenous Time Resolved Fluorescence (HTRF) technology optimized for Gq coupled receptors has thoroughly been described in the CisBio IP1 kit manual (#62IPAPEC) and in the cAMP assay kit manual for Gi coupled receptors (#62AM9PEC). Briefly, this technic is based on a competitive immunoassay using cryptate-labelled anti-cAMP or anti-IP1 antibodies and d2-labeled cAMP or IP1. In the absence of cellular cAMP or IP1, the anti-cryptate conjugate may get into proximity to the d2 conjugate and energy (FRET) can be transferred from cryptate to d2. Chem-1 cells stably expressing the human prolactin releasing peptide receptor (GPR10, Eurofins, # HTS057C) and irradiated CHO-K1 cells stably expressing the human NPFF2R (PerkinElmer, #ES-490-CF) were applied as cells in suspension, brought to life from frozen cell stocks immediately before assay performance. 384-Well (Corning, #4513) assay formats with a total assay volume of 20 µl were applied. GPR10 cells (10.000 cells/well) were incubated with agonist peptides and the NPFF2R cells (1500 cells/well) were incubated with agonist peptides and forskolin (~ 90% activity level) for 30 min at 37 °C using IP1 kit stimulation buffer and DPBS (Sigma, #D8537) containing 0.5 mM IBMX (Sigma, # I5879), receptively. Both stimulation buffers were supplemented with 0.05% casein (Sigma, # C4765-10 ml). After addition of HTRF® detection reagents and incubation with shaking (2400 rpm) for one hour at room temperature signals at 620 and 665 nm (raw counts: ratio of 665/620) were detected at a ClarioStar plate reader (BMG Labtech, Ortenberg, Germany). Concentration–response evaluation of compounds was performed with 11 concentrations of agonist peptides (covering 3 decades) and EC50 values were calculated by nonlinear regression using sigmoid concentration–response with variable slope. Data were analysed using GraphPad v9.1 software (GraphPad, La Jolla, CA).

[2] = target: T1, human prolactin releasing peptide receptor (GPR10) (Homo sapiens, UniProt P49683); test: GPR10 functional activity assay (IP1, HTRF); assay type: cell-based; conditions: Chem-1 cells stably expressing human GPR10, 10.000 cells/well; HTRF IP1 (CisBio); 30 min at 37 °C; IP1 stimulation buffer with 0.05% casein; 11 concentrations
T1 sequence (P49683 1-370): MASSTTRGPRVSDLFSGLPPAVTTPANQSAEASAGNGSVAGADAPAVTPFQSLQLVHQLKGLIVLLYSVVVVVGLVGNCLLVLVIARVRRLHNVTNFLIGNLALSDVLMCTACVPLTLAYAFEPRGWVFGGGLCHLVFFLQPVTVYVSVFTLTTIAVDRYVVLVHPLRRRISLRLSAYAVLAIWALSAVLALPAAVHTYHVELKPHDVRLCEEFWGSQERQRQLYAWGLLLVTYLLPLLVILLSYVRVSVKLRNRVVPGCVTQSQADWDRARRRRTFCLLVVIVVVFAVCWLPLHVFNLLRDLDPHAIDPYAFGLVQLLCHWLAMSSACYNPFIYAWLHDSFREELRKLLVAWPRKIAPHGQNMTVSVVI

DIO mice = test: In vivo efficacy of lipidated PrRP31 analogues in DIO mice (body weight, food intake); design: species or system male C57BL/6 J mice
Experimental: For all in vivo studies, male C57BL/6 J mice (5 weeks old, n = 7–8) were purchased from Janvier Labs (Le Genest Saint Isle, France). Individual animals were identified by implantable subcutaneous microchips (PetID Microchip, E-vet, Haderslev, Denmark). Mice were housed in a controlled environment (12 h light/dark cycle, lights on at 3 AM, 21 ± 2 °C, humidity 50 ± 10%) and had ad libitum access to tap water and regular chow (Altromin 1324, Brogaarden, Hørsholm, Denmark) or high-fat diet (60% fat, D12492 Research diet) for up to 47 weeks prior to the initiation of the study. All animal experiments were conducted in accordance to internationally accepted principles for the care and use of laboratory animals. All experiments were approved by The Animal Experimentation Council, Danish Veterinary and Food Administration (license #2013-15-2934-00784) and the Gubra ethics committee. All experiments complied with the ARRIVE guidelines.
Compounds were freshly prepared in vehicle (PBS with 0.1% BSA, pH 4) just prior to dosing. Semaglutide was purchased from Hoersholm Pharmacy (Hoersholm, Denmark). All animals were single housed two weeks prior to treatment and throughout the remaining of the study period. Mice were randomized to treatment according to body weight (n = 7–8 per group) and dosed subcutaneously (SC, 5 ml/kg) for a total of 7 days with vehicle (BID), semaglutide (10 nmol/kg, QD) or peptide analogues (1,250 nmol/kg, BID). All compounds were administered during the light phase. Body weight and food intake (24 h) were measured daily during the treatment period and one week after treatment. In vivo data were subjected to relevant statistical analyses using GraphPad v9.1 software (GraphPad, La Jolla, CA). Statistical evaluation was carried out using Dunnett’s test one-factor linear model (endpoint body weight, food intake, cumulative food intake). A p-value less than 0.05 was considered statistically significant.

[3] = plasma of DIO mice 4 h after last dosing on treatment day 6 (SC, BID); conditions: DIO mice (male C57BL/6 J), up to 4 h after last dosing on treatment day 6
[4] = plasma from cardiac blood samples of DIO mice dosed with GUB03385 (SC); conditions: DIO mice (male C57BL/6 J), up to 120 min

human NPFF2R, sequence (Q9Y5X5 whole entry): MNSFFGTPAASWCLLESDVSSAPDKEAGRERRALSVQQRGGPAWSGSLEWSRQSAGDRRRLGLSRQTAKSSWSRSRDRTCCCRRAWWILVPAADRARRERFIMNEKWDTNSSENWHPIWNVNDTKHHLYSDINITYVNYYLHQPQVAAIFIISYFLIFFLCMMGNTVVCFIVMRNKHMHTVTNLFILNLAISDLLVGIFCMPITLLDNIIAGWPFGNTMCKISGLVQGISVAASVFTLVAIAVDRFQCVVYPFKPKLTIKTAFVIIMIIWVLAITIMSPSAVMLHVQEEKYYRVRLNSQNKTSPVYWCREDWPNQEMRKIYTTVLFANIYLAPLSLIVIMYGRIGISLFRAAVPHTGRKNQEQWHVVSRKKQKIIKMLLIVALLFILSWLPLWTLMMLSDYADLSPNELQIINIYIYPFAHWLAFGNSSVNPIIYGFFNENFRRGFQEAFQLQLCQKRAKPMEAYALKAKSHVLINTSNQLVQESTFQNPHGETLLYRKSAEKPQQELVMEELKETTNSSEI

In the case of `CCCCCCCCCCCCCCCC(=O)N[C@@H](CCC(=O)NCCCC[C@H](NC(=O)[C@@H](NC(=O)[C@H](CCC(=O)O)NC(=O)[C@H](CCSC)NC(=O)[C@H](CO)NC(=O)[C@H](Cc1c[nH]cn1)NC(=O)[C@H](CCCNC(=N)N)NC(=O)[C@H](Cc1c[nH]cn1)NC(=O)[C@@H](NC(=O)[C@H](CCCNC(=N)N)NC(=O)[C@@H](N)CO)[C@@H](C)O)[C@@H](C)CC)C(=O)N[C@H](C(=O)N1CCC[C@H]1C(=O)N[C@@H](CC(=O)O)C(=O)N[C@H](C(=O)N[C@@H](CC(N)=O)C(=O)N1CCC[C@H]1C(=O)N[C@@H](C)C(=O)N[C@@H](Cc1c[nH]c2ccccc12)C(=O)N[C@@H](Cc1ccc(O)cc1)C(=O)N[C@@H](C)C(=O)N[C@@H](CO)C(=O)N[C@@H](CCCNC(=N)N)C(=O)NCC(=O)N[C@H](C(=O)N[C@@H](CCCNC(=N)N)C(=O)N1CCC[C@H]1C(=O)N[C@H](C(=O)NCC(=O)N[C@@H](CCCNC(=N)N)C(=O)N[C@@H](Cc1ccccc1)C(N)=O)C(C)C)[C@@H](C)CC)[C@@H](C)CC)[C@@H](C)O)C(=O)O` [GUB02647] (HELM PEPTIDE1{S.R.T.H.R.H.S.M.E.I.K.T.P.D.I.N.P.A.W.Y.A.S.R.G.I.R.P.V.G.R.F.[am]}|PEPTIDE2{[CCCCCCCCCCCCCCCC(=O)[*:2]].[gGlu]}$PEPTIDE1,PEPTIDE2,11:R3-2:R2$$$V2.0), the “plasma exposure 4 h after last dosing” value [1] is reported as “not detected in plasma; also recorded: undetectable in plasma”, the EC50 (human NPFF2R) is reported as 0.147 µM and the EC50 [2] is reported as 0.0003 µM. The “effect on food intake” value (DIO mice; 1,250 nmol/kg SC BID days 0-6, wash-out days 7-13, 24 h food intake measured daily) was “significantly suppressed food intake during the treatment period, but not in the wash-out phase”, the “body weight loss, day 7” value (DIO mice; 1,250 nmol/kg SC BID for 7 days (days 0-6), after last dosing, n = 7-8 per group) was 11.8 ± 1.0% and the “body weight loss, day 13” value (DIO mice; 1,250 nmol/kg SC BID for 7 days, then 7-day wash-out, n = 7-8 per group) was 8.1 ± 1.0%. The “weight loss (as summarised in discussion)” value (DIO mice; subchronic SC treatment with 1,250 nmol/kg BID, time point not stated) was 8%.
In the case of “SRGK*RPVGRF (K* lipid chain: C18DA γE OEG OEG)”, the fragment found [3] is reported as “GUB10195”.
In the case of “SRGK*RPVGRF (K* lipid chain: C18 γE OEG OEG)”, the fragment found [3] is reported as “GUB08251”.
With “SRTHRHSMEIRTPDINPAWYASRGK*RPVGRF (K* lipid chain: C18 γE OEG OEG; C-terminally amidated)” the fragment found [4] was “GUB08247: ASRGK*RPVG (C18 γE OEG OEG), major, 30 min; also recorded: GUB08248: SRGK*RPVGRF (C18 γE OEG OEG), major, 30 min; also recorded: GUB08249: SRGK*RPVG (C18 γE OEG OEG), major, 30 min; also recorded: GUB08250: SRGK*RPV (C18 γE OEG OEG), major, 30 min; also recorded: GUB08251: GK*RPVGRF (C18 γE OEG OEG), major, 60 min; also recorded: GUB08252: K*RPVGR (C18 γE OEG OEG), major, 60 min; also recorded: GUB08253: K*RPVG (C18 γE OEG OEG), major, 60 min; also recorded: GUB08254: K*RPV (C18 γE OEG OEG), major, 60 min”.
